Results on 34 compounds are retold here after ChEMBL document CHEMBL1138517, “Synthesis and structure-activity relationship of griseofulvin analogues as inhibitors of centrosomal clustering in cancer cells” (J Med Chem, 2009).

The nature of this test: Inhibition of centrosomal clustering in human SCC114 cells expressing GFPalpha-tubulin assessed as mitotic cells with multipolar spindles by fluorescence microscopy. The format is functional, cell-based.
For `COC1=CC(=O)C[C@@H](C)[C@]12Oc1c(Cl)c(OC)cc(O)c1C2=O`, the IC50 (commonly the concentration that gives 50% inhibition) was over 100 µM.

As to `CCOc1cc(OC)c(Cl)c2c1C(=O)[C@@]1(O2)C(OC)=CC(=O)C[C@H]1C`, the IC50 was over 100 µM.

Turning to `CCOC1=CC(=O)C[C@@H](C)[C@]12Oc1c(Cl)c(OC)cc(OC)c1C2=O`, the IC50 was found to be 6.6 µM.

As to `COc1cc(OC)c2c(c1Cl)O[C@]1(C2=O)C(OC(C)C)=CC(=O)C[C@H]1C`, the IC50 turned out to be 6.8 µM.

Turning to `COC1=C/C(=N\O)C[C@@H](C)[C@]12Oc1c(Cl)c(OC)cc(OC)c1C2=O`, the half-inhibitory concentration (IC50) is 17 µM.

Take `COc1cc(OC)c2c(c1Cl)O[C@@]1(C(=O)C(Cc3ccccc3)=C(O)C[C@H]1C)C2=O`: the 50% inhibitory concentration (IC50) is over 100 µM.

Regarding `CCCOC1=C(I)C(=O)C[C@@H](C)[C@]12Oc1c(Cl)c(OC)cc(OC)c1C2=O`, the half-inhibitory concentration (IC50) was found to be 2 µM.

With `COC1=CC(=O)C[C@@H](C)[C@]12Oc1c(Cl)c(OC)c([N+](=O)[O-])c(OC)c1C2=O`, the half-maximal inhibitory concentration (IC50) was over 100 µM.

For the compound `COc1cc(OC)c2c(c1Cl)O[C@]1(C2=O)C(OCc2ccccc2)=C(I)C(=O)C[C@H]1C`, the 50% inhibitory concentration (IC50) is over 100 µM.

For `CCCCCOC1=CC(=O)C[C@@H](C)[C@]12Oc1c(Cl)c(OC)cc(OC)c1C2=O`, the IC50 worked out at 2.8 µM.

For `COc1cc(OC)c2c(c1Cl)O[C@]1(C2=O)C(OC2CCCC2)=CC(=O)C[C@H]1C`, the IC50 was 1.3 µM.

Turning to `COc1cc(OC)c2c(c1Cl)O[C@]1(C2=O)C(OCc2ccc(C)cc2)=CC(=O)C[C@H]1C`, the IC50 stood at 0.9 µM.

Regarding `COc1cc(OC)c2c(c1Cl)O[C@]1(C2=O)C(OCc2ccc(-c3ccccc3)cc2)=CC(=O)C[C@H]1C`, the half-maximal inhibitory concentration (IC50) was determined as 2.9 µM.

With `COC1=C/C(=N\N(C)C)C[C@@H](C)[C@]12Oc1c(Cl)c(OC)cc(OC)c1C2=O`, the half-maximal inhibitory concentration (IC50) amounted to 27 µM.

Take `COc1cc(OC)c2c(c1Cl)O[C@]1(C2=O)C(=O)C(C)(C)C(=O)C[C@H]1C`: the IC50 was over 100 µM.

As for `COc1cc(OC)c2c(c1Cl)O[C@]1(C2=O)C(OCC2CC2)=CC(=O)C[C@H]1C`, the IC50 came to 1.8 µM.

Regarding `COc1cc(OC)c2c(c1Cl)O[C@]1(C2=O)C(SCc2ccccc2)=CC(=O)C[C@H]1C`, the IC50 worked out at 1.3 µM.

With `COC1=C[C@@H](O)C[C@@H](C)[C@]12Oc1c(Cl)c(OC)cc(OC)c1C2=O`, the IC50 was over 100 µM.

As for `COc1cc(OC)c2c(c1Cl)O[C@@]1(C2=O)[C@H](C)C[C@H](O)C[C@@H]1OC`, the 50% inhibitory concentration (IC50) was over 100 µM.

As to `COc1cc(OC)c2c(c1Cl)O[C@]1(C2=O)C(OCCc2ccccc2)=CC(=O)C[C@H]1C`, the IC50 was determined as 15 µM.

Turning to `COc1cc(OC)c2c(c1Cl)O[C@@]1(C(=O)C=C(O)C[C@H]1C)C2=O`, the IC50 is over 100 µM.

Regarding `COC1=CC(=O)C[C@@H](C)[C@]12Oc1c(Cl)c(OC)c(NCc3ccccc3)c(OC)c1C2=O`, the concentration for half-maximal inhibition (IC50) was over 100 µM.

For `COc1cc(OC)c2c(c1Cl)O[C@]1(C2=O)C(OCc2ccccc2)=CC(=O)C[C@H]1C`, the half-inhibitory concentration (IC50) stood at 0.9 µM.

Take `COc1cc(OC)c2c(c1Cl)O[C@]1(C2=O)C(OCc2ccccc2)=C/C(=N\O)C[C@H]1C`: the IC50 was 0.9 µM.

As to `COC1=CC(=O)C[C@@H](C)[C@]12Oc1c(Cl)c(OC)cc(OCc3ccccc3)c1C2=O`, the concentration for half-maximal inhibition (IC50) was over 100 µM.

Take `COC1=C(I)C(=O)C[C@@H](C)[C@]12Oc1c(Cl)c(OC)cc(OC)c1C2=O`: the half-maximal inhibitory concentration (IC50) was over 100 µM.

Regarding `CCCOC1=CC(=O)C[C@@H](C)[C@]12Oc1c(Cl)c(OC)cc(OC)c1C2=O`, the 50% inhibitory concentration (IC50) came out at 6.6 µM.

Regarding `COC1=CC(=O)C[C@@H](C)[C@]12Oc1c(Cl)c(OC)c(N)c(OC)c1C2=O`, the 50% inhibitory concentration (IC50) is over 100 µM.

As for `COc1cc(OC)c2c(c1Cl)O[C@]1(C2=O)C(OCC23CC4CC(CC(C4)C2)C3)=CC(=O)C[C@H]1C`, the IC50 came out at 3.7 µM.

In the case of `CCCCOC1=CC(=O)C[C@@H](C)[C@]12Oc1c(Cl)c(OC)cc(OC)c1C2=O`, the IC50 was 2.5 µM.

As for `COc1cc(OC)c2c(c1Cl)O[C@]1(C2=O)C(Oc2ccccc2)=CC(=O)C[C@H]1C`, the IC50 came to 1.5 µM.

Take `CCCCCCOC1=CC(=O)C[C@@H](C)[C@]12Oc1c(Cl)c(OC)cc(OC)c1C2=O`: the IC50 amounted to 4 µM.

For the compound `COC1=CC(=O)C[C@@H](C)[C@]12Oc1c(Cl)c(OC)cc(OC)c1C2=O` [GRISEOFULVIN], the IC50 worked out at 24 µM.

On to `COC1=CC(=O)[C@@]2(Oc3c(Cl)c(OC)cc(OC)c3C2=O)[C@H](C)C1` [ISOGRISEOFULVIN], for which the 50% inhibitory concentration (IC50) was over 100 µM.
